According to a compilation of properties of binary mixtures (doi:10.1039/c7cp05886a):

Test: xn = mol fraction of the nth substance listed
Conditions: 298.15 K, 100 kPa

CCCCCCCC[N+]1(C)CCCC1.O=S(=O)([N-]S(=O)(=O)C(F)(F)F)C(F)(F)F + CCCCOC(C)=O
Conditions | electrical conductivity [S/m] | viscosity [mPa·s]
x2 = 0 | 0.082 | 138.2
x2 = 0.481 | 0.256 | –
x2 = 0.4969 | – | 17.37
x2 = 0.6954 | – | 7.1
x2 = 0.7372 | 0.361 | –
x2 = 0.7499 | – | 5.07
x2 = 0.8031 | – | 3.42
x2 = 0.8484 | – | 2.5
x2 = 0.8928 | 0.242 | –
x2 = 0.9016 | – | 1.732
x2 = 0.9431 | – | 1.202
x2 = 0.9456 | 0.131 | –

CCCCCCCC[n+]1ccccc1.O=S(=O)([N-]S(=O)(=O)C(F)(F)F)C(F)(F)F + CCCCOC(C)=O
Conditions | electrical conductivity [S/m] | viscosity [mPa·s]
x2 = 0 | 0.097 | 104.1
x2 = 0.2414 | 0.166 | –
x2 = 0.2556 | – | 49.6
x2 = 0.481 | 0.271 | –
x2 = 0.501 | – | 18.43
x2 = 0.6984 | – | 6.82
x2 = 0.7372 | 0.384 | –
x2 = 0.7522 | – | 4.87
x2 = 0.7923 | 0.377 | –
x2 = 0.7996 | – | 3.57
x2 = 0.8427 | 0.333 | –
x2 = 0.8487 | – | 2.47
x2 = 0.8928 | 0.258 | –
x2 = 0.8996 | – | 1.732
x2 = 0.9456 | 0.124 | –
x2 = 0.9493 | – | 1.227

CCCCCCCCn1cc[n+](C)c1.O=S(=O)([N-]S(=O)(=O)C(F)(F)F)C(F)(F)F + CCCCOC(C)=O
Conditions | electrical conductivity [S/m] | viscosity [mPa·s]
x2 = 0.2622 | – | 44.2
x2 = 0.481 | 0.307 | –
x2 = 0.5001 | – | 17.1
x2 = 0.6824 | 0.407 | –
x2 = 0.7372 | 0.414 | –
x2 = 0.7503 | – | 4.99
x2 = 0.7923 | 0.406 | –
x2 = 0.797 | – | 3.47
x2 = 0.8503 | – | 2.53
x2 = 0.8928 | 0.279 | –
x2 = 0.8976 | – | 1.73
x2 = 0.9305 | – | 1.308
x2 = 0.9456 | 0.19 | –

CCCCOC(C)=O + CCCC[n+]1ccn(C)c1.O=S(=O)([N-]S(=O)(=O)C(F)(F)F)C(F)(F)F
Conditions | electrical conductivity [S/m] | viscosity [mPa·s]
x1 = 0.2414 | 0.529 | 26
x1 = 0.481 | 0.67 | 11.88
x1 = 0.6824 | 0.725 | 4.9
x1 = 0.7372 | 0.704 | 3.42
x1 = 0.7923 | 0.654 | 2.65
x1 = 0.8427 | 0.535 | 2.043
